According to patent US10780090B2, “Heteroaryl compounds useful as inhibitors of SUMO activating enzyme” (Millennium Pharmaceuticals, Inc., priority 2014, dated 2020):

Biological target: recombinant human SAE enzyme (Homo sapiens (Human), UniProt Q9UBT2)
Assay: SAE HTRF enzyme assay
Format: biochemical
Settings: for inhibition at 0.111 µM: read-out: Percent Inhibition
How it was run: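 Human SAE (0.11 nM) with 0.5 μM ATP, 0.125 μM Sumo-Flag and 0.01 μM Ubc9-GST in HEPES pH 7.5, 5 mM MgCl2, 250 μM GSH; 105 min at 24 °C. Stopped with EDTA; HTRF read after 2 h with Eu-anti-Flag and APC-anti-GST. Percent inhibition or IC50 reported.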

[1] = SAE inhibition at compound concentration 0.111 μM
[2] = SAE inhibition, class symbols, legend in nM

Sequence of recombinant human SAE enzyme (Q9UBT2 whole entry): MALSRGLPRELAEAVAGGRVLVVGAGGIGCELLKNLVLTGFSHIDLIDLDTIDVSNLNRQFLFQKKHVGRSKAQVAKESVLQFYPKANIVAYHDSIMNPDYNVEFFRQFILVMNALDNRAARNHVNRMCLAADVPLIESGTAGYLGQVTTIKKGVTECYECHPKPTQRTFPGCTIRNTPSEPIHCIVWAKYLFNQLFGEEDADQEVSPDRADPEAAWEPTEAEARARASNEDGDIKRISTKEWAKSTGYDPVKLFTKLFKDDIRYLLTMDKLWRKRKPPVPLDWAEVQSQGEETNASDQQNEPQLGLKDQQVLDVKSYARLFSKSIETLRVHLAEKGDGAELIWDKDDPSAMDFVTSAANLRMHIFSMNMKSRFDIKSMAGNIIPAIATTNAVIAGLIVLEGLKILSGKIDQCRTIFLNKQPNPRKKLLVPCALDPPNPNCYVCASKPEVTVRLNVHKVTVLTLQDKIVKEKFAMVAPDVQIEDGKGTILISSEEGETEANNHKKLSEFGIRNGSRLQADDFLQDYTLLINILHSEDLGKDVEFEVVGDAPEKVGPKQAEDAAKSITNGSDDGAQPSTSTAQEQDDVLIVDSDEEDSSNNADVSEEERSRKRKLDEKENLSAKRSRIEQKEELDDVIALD
Sequence of recombinant human SAE enzyme (Q9UBE0 whole entry partner): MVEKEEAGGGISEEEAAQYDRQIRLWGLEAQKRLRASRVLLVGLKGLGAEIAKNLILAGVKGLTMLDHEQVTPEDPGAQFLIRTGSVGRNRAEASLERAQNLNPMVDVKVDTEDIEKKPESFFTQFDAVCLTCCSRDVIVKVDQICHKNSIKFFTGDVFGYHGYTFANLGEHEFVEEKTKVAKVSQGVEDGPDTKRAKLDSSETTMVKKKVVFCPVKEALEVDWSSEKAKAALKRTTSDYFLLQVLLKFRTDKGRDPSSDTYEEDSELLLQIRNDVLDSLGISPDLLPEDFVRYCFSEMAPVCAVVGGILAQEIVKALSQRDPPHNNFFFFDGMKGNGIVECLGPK

| SMILES | inhibition at 0.111 µM (Concentration 0.111 μM) | IC50 (class symbols A/B/C) | Percent Inhibition (Concentration 0.111 μM) | Percent Inhibition [1] | IC50 [2] |
| --- | --- | --- | --- | --- | --- |
| Cc1cn(Cc2csc(C(=O)c3cncnc3N[C@@H]3C[C@H](COS(N)(=O)=O)[C@@H](O)C3)c2)c2ccccc12 [I-105, [(1R,2S,4R)-2-Hydroxy-4-{[5-({4-[(3-methyl-1H-indol-1-yl)methyl]-2-thienyl}carbonyl)pyrimidin-4-yl]amino}cyclopentyl]methyl sulfamate] | 96% | < 10 nM |  |  |  |
| Cc1cc(Cc2cccc(Cl)c2)sc1C(=O)c1cncnc1N[C@@H]1C[C@H](COS(N)(=O)=O)[C@@H](O)C1 [I-233, {(1R,2S,4R)-4-[(5-{[5-(3-Chlorobenzyl)-3-methyl-2-thienyl]carbonyl}pyrimidin-4-yl)amino]-2-hydroxycyclopentyl}methyl sulfamate] | 22% | 100 to 1000 nM |  |  |  |
| NS(=O)(=O)OC[C@H]1C[C@@H](Nc2ncncc2C(=O)c2cc([C@@]3(c4cccc(Cl)c4)CCCS3)cs2)C[C@@H]1O (mixture of isomers) [I-209, {(1R,2S,4R)-4-[(5-{[(2S)-2-(3-chlorophenyl)-2,3,4,5-tetrahydro-2,3′-bithiophen-5′-yl]carbonyl}pyrimidin-4-yl)amino]-2-hydroxycyclopentyl}methyl sulfamate and {(1R,2S,4R)-4-[(5-{[(2R)-2-(3-chlorophenyl)-2,3,4,5-tetrahydro-2,3′-bithiophen-5′-yl]carbonyl}pyrimidin-4-yl)amino]-2-hydroxycyclopentyl}methyl sulfamate] |  | 100 to 1000 nM | 45 |  |  |
| Cc1sc(C(=O)c2cncnc2N[C@@H]2C[C@H](COS(N)(=O)=O)[C@@H](O)C2)nc1C1OCCc2ccc(Cl)cc21 (single isomer, unassigned) [I-300a, [(1R,2S,4R)-4-{[5-({4-[(1R)-7-chloro-3,4-dihydro-1H-isochromen-1-yl]-5-methyl-1,3-thiazol-2-yl}carbonyl)pyrimidin-4-yl]amino}-2-hydroxycyclopentyl]methyl sulfamate or [(1R,2S,4R)-4-{[5-({4-[(1S)-7-chloro-3,4-dihydro-1H-isochromen-1-yl]-5-methyl-1,3-thiazol-2-yl}carbonyl)pyrimidin-4-yl]amino}-2-hydroxycyclopentyl]methyl sulfamate] |  |  |  | 26% | 100 to 1000 nM |
| NS(=O)(=O)OC[C@H]1C[C@@H](Nc2ncncc2C(=O)c2cc([C@@H]3SCCc4ccc(Cl)cc43)cs2)[C@H](O)[C@@H]1O (mixture of isomers) [I-278, [(1R,2R,3S,4R)-4-{[5-({4-[(1R)-7-chloro-3,4-dihydro-1H-isothiochromen-1-yl]-2-thienyl}carbonyl)pyrimidin-4-yl]amino}-2,3-dihydroxycyclopentyl]methyl sulfamate and [(1R,2R,3S,4R)-4-{[5-({4-[(1S)-7-chloro-3,4-dihydro-1H-isothiochromen-1-yl]-2-thienyl}carbonyl)pyrimidin-4-yl]amino}-2,3-dihydroxycyclopentyl]methyl sulfamate] |  | < 10 nM | 98 |  |  |
| NS(=O)(=O)OC[C@H]1C[C@@H](Nc2ncncc2C(=O)c2cc([C@@H](O)c3cccc(Br)c3)c(Cl)s2)C[C@@H]1O (single isomer, unassigned) [I-16a, [(1R,2S,4R)-4-{[5-({4-[(S)-(3-Bromophenyl)(hydroxy)methyl-5-chloro-2-thienyl}carbonyl)pyrimidin-4-yl]amino}-2-hydroxycyclopentyl]methyl sulfamate or [(1R,2S,4R)-4-{[5-({4-[(R)-(3-Bromophenyl)(hydroxy)methyl]-5-chloro-2-thienyl}carbonyl)pyrimidin-4-yl]amino}-2-hydroxycyclopentyl]methyl sulfamate] |  | < 10 nM | 99 |  |  |
| NS(=O)(=O)OCC1CC(Nc2ncncc2C(=O)c2cc(C(O)(c3cccc(Cl)c3)C3CC3)cs2)CC1O (mixture of isomers) [I-50, [(1R,2S,4R)-4-{[5-({4-[(S)-(3-chlorophenyl)(cyclopropyl)hydroxymethyl]-2-thienyl}carbonyl)pyrimidin-4-yl]amino}-2-hydroxycyclopentyl]methyl sulfamate and [(1R,2S,4R)-4-{[5-({4-[(R)-(3-chlorophenyl)(cyclopropyl)hydroxymethyl]-2-thienyl}carbonyl)pyrimidin-4-yl]amino}-2-hydroxycyclopentyl]methyl sulfamate] |  | < 10 nM | 99 |  |  |
| NS(=O)(=O)OC[C@H]1C[C@@H](Nc2ncncc2C(=O)c2ccc(Cc3ccccc3)o2)C[C@@H]1O [I-127, [(1R,2S,4R)-4-{[5-(5-benzyl-2-furoyl)pyrimidin-4-yl]amino}-2-hydroxycyclopentyl]methyl sulfamate] | 95% | < 10 nM |  |  |  |
| Cc1sc(C(=O)c2cncnc2N[C@@H]2C[C@H](COS(N)(=O)=O)[C@@H](O)C2)cc1[C@@H]1OCCc2ccc(C3CC3)cc21 (mixture of isomers) [I-277, [(1R,2S,4R)-4-{[5-({4-[(1R)-7-cyclopropyl-3,4-dihydro-1H-isochromen-1-yl]-5-methyl-2-thienyl}carbonyl)pyrimidin-4-yl]amino}-2-hydroxycyclopentyl]methyl sulfamate and [(1R,2S,4R)-4-{[5-({4-[(1S)-7-cyclopropyl-3,4-dihydro-1H-isochromen-1-yl]-5-methyl-2-thienyl}carbonyl)pyrimidin-4-yl]amino}-2-hydroxycyclopentyl]methyl sulfamate] |  | < 10 nM | 99 |  |  |
| NS(=O)(=O)OC[C@H]1C[C@@H](Nc2ncncc2C(=O)c2cc([C@H]3OCC4(CC4)c4ccccc43)cs2)C[C@@H]1O (mixture of isomers) [I-281, [(1R,2S,4R)-2-hydroxy-4-{[5-({4-[(1′R)-1′H-spiro[cyclopropane-1,4′-isochromen]-1′-yl]-2-thienyl}carbonyl)pyrimidin-4-yl]amino}cyclopentyl]methyl sulfamate and [(1R,2S,4R)-2-hydroxy-4-{[5-({4-[(1′S)-1′H-spiro[cyclopropane-1,4′-isochromen]-1′-yl]-2-thienyl}carbonyl)pyrimidin-4-yl]amino}cyclopentyl]methyl sulfamate] |  |  |  | 98% | < 10 nM |
| NS(=O)(=O)OC[C@H]1C[C@@H](Nc2ncncc2C(=O)c2cc(C3SCCc4ccc(Cl)cc43)cs2)[C@H](O)[C@@H]1O (single isomer, unassigned) [I-278b, [(1R,2R,3S,4R)-4-{[5-({4-[(1R)-7-chloro-3,4-dihydro-1H-isothiochromen-1-yl]-2-thienyl}carbonyl)pyrimidin-4-yl]amino}-2,3-dihydroxycyclopentyl]methyl sulfamate or [(1R,2R,3S,4R)-4-{[5-({4-[(1S)-7-chloro-3,4-dihydro-1H-isothiochromen-1-yl]-2-thienyl}carbonyl)pyrimidin-4-yl]amino}-2,3-dihydroxycyclopentyl]methyl sulfamate] |  | < 10 nM | 99 |  |  |
| NS(=O)(=O)OC[C@H]1C[C@@H](Nc2ncncc2C(=O)c2cc([C@H](O)c3cccc(Cl)c3)c(Cl)s2)C[C@@H]1O (single isomer, unassigned) [I-9a, [(1R,2S,4R)-4-{[5-({5-chloro-4-[(R)-(3-chlorophenyl)(hydroxy)methyl]-2-thienyl}carbonyl)pyrimidin-4-yl]amino}-2-hydroxycyclopentyl]methyl sulfamate or [(1R,2S,4R)-4-{[5-({5-chloro-4-[(S)-(3-chlorophenyl)(hydroxy)methyl]-2-thienyl}carbonyl)pyrimidin-4-yl]amino}-2-hydroxycyclopentyl]methyl sulfamate] |  | < 10 nM | 99 |  |  |
| NS(=O)(=O)OC[C@H]1C[C@@H](Nc2ncncc2C(=O)c2cc(CN3Cc4ccccc4C3)cs2)C[C@@H]1O [I-187, {(1R,2S,4R)-4-[(5-{[4-(1,3-dihydro-2H-isoindol-2-ylmethyl)-2-thienyl]carbonyl}pyrimidin-4-yl)amino]-2-hydroxycyclopentyl}methyl sulfamate] | 76% | 10 to 100 nM |  |  |  |
| Cc1sc(C(=O)c2cncnc2N[C@@H]2C[C@H](COS(N)(=O)=O)[C@@H](O)C2)cc1CN1CCc2ccc(C#N)cc21 [I-128, [(1R,2S,4R)-4-{[5-({4-[(6-cyano-2,3-dihydro-1H-indol-1-yl)methyl]-5-methyl-2-thienyl}carbonyl)pyrimidin-4-yl]amino}-2-hydroxycyclopentyl]methyl sulfamate] | 95% | < 10 nM |  |  |  |
| NS(=O)(=O)OC[C@H]1C[C@@H](Nc2ncncc2C(=O)c2cc([C@@H]3OCCc4c(Cl)cccc43)cs2)C[C@@H]1O (single isomer, unassigned) [I-301a, [(1R,2S,4R)-4-{[5-({4-[(1R)-5-chloro-3,4-dihydro-1H-isochromen-1-yl]-2-thienyl}carbonyl)pyrimidin-4-yl]amino}-2-hydroxycyclopentyl]methyl sulfamate or [(1R,2S,4R)-4-{[5-({4-[(1S)-5-chloro-3,4-dihydro-1H-isochromen-1-yl]-2-thienyl}carbonyl)pyrimidin-4-yl]amino}-2-hydroxycyclopentyl]methyl sulfamate] |  |  |  | 40% | 100 to 1000 nM |
| NS(=O)(=O)OC[C@H]1C[C@@H](Nc2ncncc2C(=O)c2cc(Cn3ccc4ccncc43)cs2)C[C@@H]1O [I-186, {(1R,2S,4R)-2-hydroxy-4-[(5-{[4-(1H-pyrrolo[2,3-c]pyridin-1-ylmethyl)-2-thienyl]carbonyl}pyrimidin-4-yl)amino]cyclopentyl}methyl sulfamate] | 83% | 10 to 100 nM |  |  |  |
